Assay results as given in US11975017B2, “Compositions comprising an RNA polymerase inhibitor and cyclodextrin for treating viral infections” (priority 2017, dated 2024).
In brackets after ≈: the same amount, converted by molar mass.

Columns and labels:
[1] = format: physicochemical; conditions: between pH 1 and 10; FIG. 2
Method: The stability of Compound 1 was determined by monitoring the concentration of Compound 1 in solution by liquid chromatography at various storage conditions. […] The solubility of Compound 1 between pH 1 and 10 was determined by quantitatively measuring the concentration of Compound 1 in solution at various pH conditions by liquid chromatography.

physchem = conditions: water

SMILES: CCC(CC)COC(=O)[C@H](C)N[P@](=O)(OC[C@H]1O[C@@](C#N)(c2ccc3c(N)ncnn23)[C@H](O)[C@@H]1O)Oc1ccccc1 [Compound 1, (S)-2-ethylbutyl 2-(((S)-(((2R,3S,4R,5R)-5-(4-aminopyrrolo[2,1-f][1,2,4]triazin-7-yl)-5-cyano-3,4-dihydroxytetrahydrofuran-2-yl)methoxy)(phenoxy)phosphoryl)amino)propanoate]
- solubility as a function of pH [1]: increases at or below pH 4
- solubility (physchem): ~30 µg/mL (≈ 49.8 µM)
